Molecules are shown by their SMILES.

For this test, the target named is T1, human factor Xa (Homo sapiens, UniProt P00742).
T1 construct: purchased Enzyme Research Laboratories
T1 sequence (P00742 235-488 limits assumed): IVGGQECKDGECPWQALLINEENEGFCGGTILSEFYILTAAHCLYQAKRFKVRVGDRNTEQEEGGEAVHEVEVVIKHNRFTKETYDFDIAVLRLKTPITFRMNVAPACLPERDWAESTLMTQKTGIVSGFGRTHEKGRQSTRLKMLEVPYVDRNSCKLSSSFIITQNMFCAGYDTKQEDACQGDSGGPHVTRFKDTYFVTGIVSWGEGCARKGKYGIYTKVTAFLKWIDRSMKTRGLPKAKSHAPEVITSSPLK
T1 sequence (P00742 41-179 partner limits assumed): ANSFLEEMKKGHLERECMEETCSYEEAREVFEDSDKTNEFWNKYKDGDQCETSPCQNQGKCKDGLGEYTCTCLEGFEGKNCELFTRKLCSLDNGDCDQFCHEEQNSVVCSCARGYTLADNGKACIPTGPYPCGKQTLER
Description: chromogenic peptide substrate assay, inhibition of factor Xa. Format: biochemical. Conditions: human factor Xa 3 nM, chromogenic substrate S-2222, pH 7.8, room temperature; Ki from IC50 by Cheng-Prusoff. On the procedure:
Factor Xa activity was measured spectrophotometrically in microtiter plates in a final volume of 150 μl using the following conditions: Inhibition of human factor Xa (Enzyme Research Laboratories) was tested at an enzyme concentration of 3 nM using the chromogenic substrate S-2222 (Chromogenix AB, Molndal, Sweden) at […]. The reaction kinetics of the enzyme and the substrate were linear with both time and the enzyme concentration. The inhibitors were dissolved in DMSO and tested at various concentrations up to 100 μM. The inhibitors were diluted using HNPT buffer consisting of HEPES 100 mM, NaCl 140 mM, PEG 6000 0.1% and Tween 80 0.02%, pH 7.8. The cleavage of S-2222 by human factor Xa was followed at 405 nm for 5 minutes at room temperature. The velocity of the reaction was determined by the autoreader from the slope of the linear regression fit to 7 time points (1 minute). The initial velocity for each inhibitor concentration was determined by the slope of at least 4 time points in the linear phase by a linear regression fit […]. Apparent dissociation constants Ki were calculated according to Cheng and Prusoff [Cheng, Y. C.; Prusoff, W. H. Relationship between the inhibition constant (Ki) and the concentration of the inhibitor that causes 50 percent inhibition (IC50) of an enzyme reaction. Biochem. Pharmacol. 1973, 22, 3099-3108.] based on the IC50 and the respective Km, determined previously (Ki=IC50/(1+S/Km)). The Km for the substrate used was determined under the conditions of the test with at least 5 substrate concentrations ranging from 0.5 to 15 times Km. [Lottenberg R, Hall J A, Blinder M, Binder E P, Jackson C M., The action of thrombin on peptide p-nitroanilide substrates. Substrate selectivity and examination of hydrolysis under different reaction conditions. Biochim Biophys Acta. 1983 Feb. 15; 742(3):539-57]. According to Eadie [Eadie G. S. The inhibition of cholinesterase by physostigmine and prostigmine. J. Biol. Chem. 1942, 146, 85-93.], the Km for S-2222 amounted to 613 μM.
As usually defined, the Ki is the dissociation constant of the complex between target and ligand, obtained from inhibition or displacement. Compound `O=C(NC[C@@H]1CN(C(=O)Nc2ccc(-n3ccccc3=O)cc2F)C[C@H]1C(F)(F)F)c1ccc(Cl)s1` [Example 77, (3R,4S)-3-{[(5-chloro-thiophene-2-carbonyl)-amino]-methyl}-4-trifluoromethyl-pyrrolidine-1-carboxy-lic acid[2-fluoro-4-(2-oxo-2H-pyridin-1-yl)-phenyl]-amide] returned an inhibitory constant (Ki) of 0.008 µM.

`CC(C(=O)Nc1ccc(-n2ccccc2=O)cc1F)N1CC[C@@H](NC(=O)c2ccc(Cl)s2)C1` (stereo partly drawn) [Example 6, 5-chloro-thiophene-2-carboxylic acid ((R)-1-{1-[2-fluoro-4-(2-oxo-pyridin-1-yl)-phenylcarbamoyl]-ethyl}-pyrrolidin-3-yl)-amide] had an inhibition constant Ki of 0.017 µM.

For the compound `O=C(NC[C@H]1CCN(C(=O)Nc2ccc(-n3ccccc3=O)cc2F)C1)c1ccc(Cl)s1` [Example 54, (R)-3-{[(5-chloro-thiophene-2-carbonyl)-amino]-methyl}-pyrrolidine-1-carboxylic acid[2-fluoro-4-(2-oxo-2H-pyridin-1-yl)-phenyl]-amide], the inhibition constant (Ki) was 0.013 µM.

`CO[C@H]1CN(CC(=O)Nc2ccc(N3CCOCC3=O)cc2F)C[C@@H]1NC(=O)c1ccc(Cl)s1` [Example 26, 5-chloro-thiophene-2-carboxylic acid ((3S,4S)-1-{[2-fluoro-4-(3-oxo-morpholin-4-yl)-phenylcar-bamoyl]-methyl}-4-methoxy-pyrrolidin-3-yl)-amide] showed a Ki of 0.014 µM.

In turn, `CN(C1CN(C(=O)Nc2ccc(-n3ccccc3=O)cc2F)C[C@H]1CNC(=O)c1ccc(Cl)s1)S(C)(=O)=O` (stereo partly drawn) [Example 85, (R)-3-{[(5-chloro-thiophene-2-carbonyl)-amino]-methyl}-4-(methanesulfonyl-methyl-amino)-pyrrolidine-1-carboxylic acid[2-fluoro-4-(2-oxo-2H-pyridin-1-yl)-phenyl]-amide] gave a Ki of 0.012 µM.

Source of the values: patent US7820699B2, “Cyclic amines” (Hoffmann-La Roche Inc., priority 2005, dated 2010).
